Laboratory results from patent US8791107B2, “N-substituted oxazinopteridines and oxazinopteridinones” (Takeda Pharmaceutical Company Limited, priority 2011, dated 2014).

target: T1, PI3Kδ (Homo sapiens, UniProt O00329); test: PI3Kδ inhibition, modified PIK3CD Adapta TR-FRET assay; format: biochemical; conditions: recombinant GST-tagged full length PIK3CD co-expressed with PIK3R1 (p85α); 2 μM ATP, 50 μM PIP2
T1 construct: The protein is full length and co-expressed with untagged PIK3R1; GST; purchased Invitrogen PV5274
Protocol: The activity of compounds as PI3Kδ inhibitors may be determined by a variety of methods, including in vitro and in vivo methods. The following in vitro assay measures a test compound's ability to inhibit PI3Kδ-mediated phosphorylation of PIP2 and ATP.
Recombinant GST-tagged PIK3CD is purchased from Invitrogen (Part Number: PV5274). The protein is full length and co-expressed with untagged PIK3R1, phosphoinositide-3-kinase regulatory subunit 1 (p85α). The protein is stored at −20° C. in 50 mM TRIS (pH 7.5), 150 mM NaCl, 0.5 mM EDTA, 0.02% Triton® X-100, 2 mM DTT, and 50% glycerol.
A modified PIK3CD Adapta® assay (Invitrogen, Carlsbad, Calif.) is used to measure PI3Kδ inhibition of the example compounds. The assay has two phases. In the first phase, kinase reaction components, which include the enzyme (PIK3CD), substrates (PIP2, ATP), test compound (inhibitor), and assay buffer are added to each well, and the reaction is allowed to incubate for a pre-determined period of time. […] In the presence of the inhibitor, the amount of ADP formed by the kinase reaction is reduced, and the resulting intact antibody-tracer interaction maintains a high TR-FRET signal.
The reaction buffer contains 50 mM Hepes (pH 7.5), 3 mM MgCl2, 1 mM EGTA, 100 mM NaCl, 0.03% CHAPS; 2 mM DTT is added fresh prior to each experiment. […] Next, test compounds (2 μL) from a source plate (5% dilution plate) are introduced into the wells. The final DMSO concentration in each assay well is 1%. […] Other wells contain test compounds serially diluted across the plate 11 times for a total of 12 data points. The kinase reactions are carried out at room temperature and are initiated by the addition of 4 μL of solution containing 2 μM ATP and 50 μM PIP2. […] This emission signal is referenced or “ratioed” to the emission from Eu at 620 nm. […] The percent inhibition for a given inhibitor concentration is computed from % conversion for the reaction and for the positive and negative controls.

T1 sequence (O00329 whole entry): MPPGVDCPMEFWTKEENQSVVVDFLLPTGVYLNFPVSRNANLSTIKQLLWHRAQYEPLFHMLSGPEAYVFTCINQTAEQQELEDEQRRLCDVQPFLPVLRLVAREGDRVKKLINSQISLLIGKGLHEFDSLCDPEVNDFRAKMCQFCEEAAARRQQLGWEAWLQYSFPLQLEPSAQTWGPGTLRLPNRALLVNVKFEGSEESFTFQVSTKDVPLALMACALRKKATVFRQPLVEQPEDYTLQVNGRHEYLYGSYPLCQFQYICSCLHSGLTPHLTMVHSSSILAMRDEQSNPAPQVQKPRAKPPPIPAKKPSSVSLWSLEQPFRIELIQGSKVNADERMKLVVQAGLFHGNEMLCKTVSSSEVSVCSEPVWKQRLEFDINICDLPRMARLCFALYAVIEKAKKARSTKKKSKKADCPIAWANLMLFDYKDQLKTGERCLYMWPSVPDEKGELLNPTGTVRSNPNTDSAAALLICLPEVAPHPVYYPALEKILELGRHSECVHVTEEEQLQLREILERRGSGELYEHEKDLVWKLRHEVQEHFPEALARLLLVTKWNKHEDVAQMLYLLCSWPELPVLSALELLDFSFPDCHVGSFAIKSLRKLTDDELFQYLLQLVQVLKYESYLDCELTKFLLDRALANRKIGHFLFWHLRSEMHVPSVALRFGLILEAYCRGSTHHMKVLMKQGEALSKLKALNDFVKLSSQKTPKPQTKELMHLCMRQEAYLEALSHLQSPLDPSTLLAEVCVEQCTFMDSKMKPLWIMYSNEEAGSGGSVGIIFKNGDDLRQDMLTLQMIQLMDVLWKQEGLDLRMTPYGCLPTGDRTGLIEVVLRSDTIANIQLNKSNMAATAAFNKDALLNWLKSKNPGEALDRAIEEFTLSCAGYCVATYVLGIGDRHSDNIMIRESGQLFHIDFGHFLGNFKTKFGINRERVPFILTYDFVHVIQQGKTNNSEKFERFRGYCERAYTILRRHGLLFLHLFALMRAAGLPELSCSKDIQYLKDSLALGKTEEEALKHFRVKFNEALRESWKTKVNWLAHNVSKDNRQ
T1 sequence (P27986 whole entry partner): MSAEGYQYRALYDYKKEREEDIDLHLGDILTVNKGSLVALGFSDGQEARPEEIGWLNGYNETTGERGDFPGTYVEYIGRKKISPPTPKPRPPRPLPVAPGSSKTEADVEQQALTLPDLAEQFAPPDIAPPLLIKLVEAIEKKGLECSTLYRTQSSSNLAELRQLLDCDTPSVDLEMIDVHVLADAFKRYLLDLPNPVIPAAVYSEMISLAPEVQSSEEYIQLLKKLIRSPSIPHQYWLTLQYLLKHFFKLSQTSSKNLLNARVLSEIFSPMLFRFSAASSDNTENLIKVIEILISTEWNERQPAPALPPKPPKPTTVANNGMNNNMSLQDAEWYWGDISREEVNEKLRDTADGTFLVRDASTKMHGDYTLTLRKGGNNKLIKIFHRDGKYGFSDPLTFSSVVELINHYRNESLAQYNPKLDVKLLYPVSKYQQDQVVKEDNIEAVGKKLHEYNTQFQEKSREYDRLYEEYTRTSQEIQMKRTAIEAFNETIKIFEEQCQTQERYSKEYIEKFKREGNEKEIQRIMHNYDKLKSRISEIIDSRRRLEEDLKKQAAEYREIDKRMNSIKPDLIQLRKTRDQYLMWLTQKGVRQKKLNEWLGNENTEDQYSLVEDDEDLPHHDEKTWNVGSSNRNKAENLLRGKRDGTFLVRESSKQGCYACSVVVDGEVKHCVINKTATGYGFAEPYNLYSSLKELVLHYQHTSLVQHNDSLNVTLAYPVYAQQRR

SMILES	PI3Kδ Inhibition (pIC50)
CNC(=O)Nc1ccc(-c2ncc3c(n2)N2CCOC[C@H]2C(=O)N3[C@@H](C)c2ccc(C)cc2)cc1 (single isomer, unassigned) [Example 86]	8.1

same assay, conditions: recombinant GST-tagged full length PIK3CD co-expressed with PIK3R1 (p85α); 2 μM ATP, 50 μM PIP2; read-out: PI3Kδ Inhibition (pIC50) (converted)

SMILES	IC50
O=C(Nc1ccc(-c2ncc3c(n2)N2CCOCC2C(=O)N3C2CCOCC2)cc1)NC1CC1 (stereo not shown) [Example 229, 1-cyclopropyl-3-(4-(6-oxo-5-(tetrahydro-2H-pyran-4-yl)-5,6,6a,7,9,10-hexahydro-[1,4]oxazino[3,4-h]pteridin-2-yl)phenyl)urea]	31.6 nM
CNC(=O)Nc1ccc(-c2ncc3c(n2)N2CCOCC2C(=O)N3Cc2ccc(S(C)(=O)=O)cc2)cc1 (stereo not shown) [Example 91, 1-methyl-3-(4-(5-(4-(methylsulfonyl)benzyl)-6-oxo-5,6,6a,7,9,10-hexahydro-[1,4]oxazino[3,4-h]pteridin-2-yl)phenyl)urea]	0.794 nM
NC(=O)c1ccc(F)c(CN2CC3COCCN3c3nc(-c4cccc5[nH]ccc45)ncc32)c1 (stereo not shown) [Example 77, 3-((2-(1H-indol-4-yl)-6a,7,9,10-tetrahydro-[1,4]oxazino[3,4-h]pteridin-5(6H)-yl)methyl)-4-fluorobenzamide]	50.1 nM
COc1cncc(N2C[C@@H]3COCCN3c3nc(-c4cccc5[nH]ccc45)ncc32)c1 [Example 201, (R)-2-(1H-indol-4-yl)-5-(5-methoxypyridin-3-yl)-5,6,6a,7,9,10-hexahydro-[1,4]oxazino[3,4-h]pteridine]	12.6 nM
Cc1c[nH]c2c(F)ccc(-c3ncc4c(n3)N3CCOCC3C(=O)N4Cc3ccc(S(C)(=O)=O)cc3)c12 (stereo not shown) [Example 143, 2-(7-fluoro-3-methyl-1H-indol-4-yl)-5-(4-(methylsulfonyl)benzyl)-6a,7,9,10-tetrahydro-[1,4]oxazino[3,4-h]pteridin-6(5H)-one]	2000 nM
COC(=O)c1cc(N2C[C@@H]3COCCN3c3nc(-c4cccc5[nH]ccc45)ncc32)cnc1OC [Example 202, (R)-methyl 5-(2-(1H-indol-4-yl)-6a,7,9,10-tetrahydro-[1,4]oxazino[3,4-h]pteridin-5(6H)-yl)-2-methoxynicotinate]	2.51 nM
Cc1ccccc1N1C[C@@H]2COCCN2c2nc(-c3cccc4[nH]ccc34)ncc21 [Example 187, (R)-2-(1H-indol-4-yl)-5-(o-tolyl)-5,6,6a,7,9,10-hexahydro-[1,4]oxazino[3,4-h]pteridine]	126 nM
OC1CCC(N2C[C@@H]3COCCN3c3nc(-c4cccc5[nH]ccc45)ncc32)CC1 (stereo partly drawn) [Example 189, (R)-4-(2-(1H-indol-4-yl)-6a,7,9,10-tetrahydro-[1,4]oxazino[3,4-h]pteridin-5(6H)-yl)cyclohexanol]	7.94 nM
CNC(=O)Nc1ccc(-c2ncc3c(n2)N2CCOCC2C(=O)N3C2(c3ccc(Cl)cc3)CC2)cc1 (stereo not shown) [Example 99, 1-(4-(5-(1-(4-chlorophenyl)cyclopropyl)-6-oxo-5,6,6a,7,9,10-hexahydro-[1,4]oxazino[3,4-h]pteridin-2-yl)phenyl)-3-methylurea]	6.31 nM
CS(=O)(=O)c1ccc(CN2CC3COCCN3c3nc(-c4cnc(N)nc4)ncc32)cc1 (stereo not shown) [Example 4, 5-(5-(4-(methylsulfonyl)benzyl)-5,6,6a,7,9,10-hexahydro-[1,4]oxazino[3,4-h]pteridin-2-yl)pyrimidin-2-amine]	3.98 nM
CN(C)C(=O)CN1CC2COCCN2c2nc(-c3cccc4[nH]ccc34)ncc21 (stereo not shown) [Example 43, 2-(2-(1H-indol-4-yl)-6a,7,9,10-tetrahydro-[1,4]oxazino[3,4-h]pteridin-5(6H)-yl)-N,N-dimethylacetamide]	398 nM
CS(=O)(=O)c1ccc(CN2C[C@H]3COCCN3c3nc(-c4cccc5[nH]ccc45)ncc32)cc1 [Example 28, (S)-2-(1H-indol-4-yl)-5-(4-(methylsulfonyl)benzyl)-5,6,6a,7,9,10-hexahydro-[1,4]oxazino[3,4-h]pteridine]	631 nM
CS(=O)(=O)c1ccc(CN2C(=O)C3COCCN3c3nc(-c4c[nH]c5ncccc45)ncc32)cc1 (stereo not shown) [Example 137, 5-(4-(methylsulfonyl)benzyl)-2-(1H-pyrrolo[2,3-b]pyridin-3-yl)-6a,7,9,10-tetrahydro-[1,4]oxazino[3,4-h]pteridin-6(5H)-one]	501 nM
CS(=O)(=O)c1ccc(CN2C(=O)C3COCCN3c3nc(-c4ccc5cc[nH]c5c4)ncc32)cc1 (stereo not shown) [Example 100, 2-(1H-indol-6-yl)-5-(4-(methylsulfonyl)benzyl)-6a,7,9,10-tetrahydro-[1,4]oxazino[3,4-h]pteridin-6(5H)-one]	3980 nM
CC(C)(C)OC(=O)N[C@H]1CC[C@H](CN2CC3COCCN3c3nc(-c4cccc5[nH]ccc45)ncc32)CC1 (stereo partly shown) [Example 57, tert-butyl ((1r,4r)-4-((2-(1H-indol-4-yl)-6a,7,9,10-tetrahydro-[1,4]oxazino[3,4-h]pteridin-5(6H)-yl)methyl)cyclohexyl)carbamate]	794 nM
CCc1cccc(N2C[C@@H]3COCCN3c3nc(-c4cccc5[nH]ccc45)ncc32)c1 [Example 183, (R)-5-(3-ethylphenyl)-2-(1H-indol-4-yl)-5,6,6a,7,9,10-hexahydro-[1,4]oxazino[3,4-h]pteridine]	398 nM
O=C(CN1C[C@@H]2COCCN2c2nc(-c3cccc4[nH]ccc34)ncc21)NC1CC1 [Example 207, (R)-2-(2-(1H-indol-4-yl)-6a,7,9,10-tetrahydro-[1,4]oxazino[3,4-h]pteridin-5(6H)-yl)-N-cyclopropylacetamide]	251 nM
c1cc(-c2ncc3c(n2)N2CCOCC2CN3)c2cc[nH]c2n1 (stereo not shown) [Example 15, 2-(1H-pyrrolo[2,3-b]pyridin-4-yl)-5,6,6a,7,9,10-hexahydro-[1,4]oxazino[3,4-h]pteridine]	398 nM
CNC(=O)Nc1ccc(-c2ncc3c(n2)N2CCOCC2C(=O)N3CC2CC2(F)F)cc1 (stereo not shown) [Example 93, 1-(4-(5-((2,2-difluorocyclopropyl)methyl)-6-oxo-5,6,6a,7,9,10-hexahydro-[1,4]oxazino[3,4-h]pteridin-2-yl)phenyl)-3-methylurea]	5.01 nM
CS(=O)(=O)c1ccc(CN2C(=O)C3COCCN3c3nc(-c4cccc(N)c4)ncc32)cc1 (stereo not shown) [Example 103, 2-(3-aminophenyl)-5-(4-(methylsulfonyl)benzyl)-6a,7,9,10-tetrahydro-[1,4]oxazino[3,4-h]pteridin-6(5H)-one]	126 nM
O=C1C2COCCN2c2nc(-c3cccc4[nH]ccc34)ncc2N1C1CCc2ccc(Cl)cc21 (stereo not shown) [Example 146, 5-(6-chloro-2,3-dihydro-1H-inden-1-yl)-2-(1H-indol-4-yl)-6a,7,9,10-tetrahydro-[1,4]oxazino[3,4-h]pteridin-6(5H)-one]	31.6 nM
CC(C)NS(=O)(=O)c1cccc(-c2ncc3c(n2)N2CCOCC2C(=O)N3Cc2ccc(S(C)(=O)=O)cc2)c1 (stereo not shown) [Example 98, N-isopropyl-3-(5-(4-(methylsulfonyl)benzyl)-6-oxo-5,6,6a,7,9,10-hexahydro-[1,4]oxazino[3,4-h]pteridin-2-yl)benzenesulfonamide]	6310 nM
c1cc(-c2ncc3c(n2)N2CCOCC2CN3Cc2nnnn2C2CC2)c2cc[nH]c2c1 (stereo not shown) [Example 36, 5-((1-cyclopropyl-1H-tetrazol-5-yl)methyl)-2-(1H-indol-4-yl)-5,6,6a,7,9,10-hexahydro-[1,4]oxazino[3,4-h]pteridine]	126 nM
CNC(=O)Nc1ccc(-c2ncc3c(n2)N2CCOCC2C(=O)N3Cc2ccc(Cl)cc2)cc1 (stereo not shown) [Example 89, 1-(4-(5-(4-chlorobenzyl)-6-oxo-5,6,6a,7,9,10-hexahydro-[1,4]oxazino[3,4-h]pteridin-2-yl)phenyl)-3-methylurea]	63.1 nM
CC(C)(O)CNC(=O)CN1C[C@@H]2COCCN2c2nc(-c3cccc4[nH]ccc34)ncc21 [Example 71, (R)-2-(2-(1H-indol-4-yl)-6a,7,9,10-tetrahydro-[1,4]oxazino[3,4-h]pteridin-5(6H)-yl)-N-(2-hydroxy-2-methylpropyl)acetamide]	398 nM
CS(=O)(=O)c1ccc(CN2C(=O)C3COCCN3c3nc(-c4ccc(N)nc4)ncc32)cc1 (stereo not shown) [Example 106, 2-(6-aminopyridin-3-yl)-5-(4-(methylsulfonyl)benzyl)-6a,7,9,10-tetrahydro-[1,4]oxazino[3,4-h]pteridin-6(5H)-one]	7.94 nM
O=C(CN1C[C@@H]2COCCN2c2nc(-c3ccsc3)ncc21)NCC1CCOCC1 [Example 223, (R)—N-((tetrahydro-2H-pyran-4-yl)methyl)-2-(2-(thiophen-3-yl)-6a,7,9,10-tetrahydro-[1,4]oxazino[3,4-h]pteridin-5(6H)-yl)acetamide]	794 nM
